Test results: patent US10105380B2, “Glycoclusters and their pharmaceutical use as antibacterials” (priority 2013, dated 2018)
≈ marks a conversion by molar mass, not a printed value. Where two headings read alike, the source gives them in different places.

Legend:
PA-IL [1] = target: T1, PA-IL (Pseudomonas aeruginosa, UniProt Q05097); test: Kd determination on DDI microarray (Langmuir isotherm, Scatchard plot); assay type: binding; details: DNA-tagged galactoclusters G1-G24 on glycoarray
Procedure: The methodologies for Kd and IC50 value determination have been previously reported (Gerland, B. et al., (2012) Bioconjugate Chem. 23, 1534-1547; Zhang, J. et al., (2009) Chem. Comm., 6795-6797; Zhang, J. et al., (2009) Biosens. Bioelectron. 24, 2515-2521).
CaCl2 (1 μg/mL final concentration) was added. PA-IL at the desired final concentration was then added. 2 μL of each solution (corresponding to the desired PA-IL concentration) were poured in the corresponding microwells. The slide was incubated (3 h, 37° C.) in a water vapor saturated chamber and finally washed in PBS-Tween 20 (0.02%, 5 min, 4° C.) and dried. A Microarray scanner, GenePix 4100A software package (Axon Instruments; λex 532/635 nm and λem 575/670 nm) was used for fluorescent imaging of both fluorophore (Cy3 and Alexa 647). The average of the mean fluorescence signal was calculated from eight spots. The resulting Langmuir Isotherms were linearised using Scatchard plot to give the Kd values at the ordonnate intercept.

PA-IL [2] = target: T1, PA-IL; assay type: binding; details: for Potency vs EG3-O-Gal: ratio of IC50Lac to mono EG3-O-galactose (entry 1); for Potency vs AcNPhe-O-Gal: ratio of IC50Lac to mono-aromatic galactose 31 (entry 2)
Procedure: IC50 Determination with “on Chip” Biological Recognition
Lectin PA-IL (0.12 μM final concentration), BSA (2% final concentration) and CaCl2 (1 μg/mL final concentration) was diluted in PBS1× (pH=7.4). In each micro tube was added the inhibitor lactose at the desired final concentration (0; 1.10^−5; 1.10^−4; 5.10^−4; 1.10^−3; 5.10^−3; 1.10^−2; 5.10^−2; 0.1; 1; 5; 10; 50; 10^2; 5.10^2; 10^3; 5.10^3; 10^4; 10^5; 3.10^5).
2 μL of each solution were deposited in the corresponding microwells and the slide was incubated at 37° C. in a water vapor saturated chamber for 3 h. The washing steps are: PBS-Tween0.2% 5 min at 4° C., then briefly in deionized water and dried by centrifugation.
Slide was scanned at 532 nm then at 635 nm with the Microarray scanner, GenePix 4100A software package (Axon Instruments; λex 532/635 nm and λem 575/670 nm). The fluorescence signal of each conjugate was determined as the average of the mean fluorescence signal of sixty-four spots.
IC50 values were determined using “BioDataFit 1.02 program”. The model chosen was “Sigmoidal”: Y=a+(b−a)/[1+10^(x−c)]
with a=FImin, b=FImax, x=[…] and c=log(IC50). FImin/max is the minimum/maximum Alexa-647 fluorescence signal observed for a galactomimetic.
So the IC50 value was called IC50Lac.

PA-IL [3] = target: T1, PA-IL; test: DDI glycoarray, direct fluorescence scanning with Alexa647-PA-IL; assay type: binding; details: result in words
PA-IL [4] = target: T1, PA-IL; test: Enzyme Linked Lectin Assay (ELLA), PAA-galactose coated plates; assay type: binding
Procedure: (§1) The binding of PA-IL to galactoclusters was probed as the ability of the clusters to inhibit the binding of PA-IL to rabbit erythrocytes (Hemagglutination inhibition assay, HIA) or to surface bound galactosyl modified polyacrylamide either by Surface Plasmon Resonance (SPR), Enzyme Linked Assay (ELLA) Inhibition was measured with competitive assays. In HIA experiments, the minimal inhibitory concentration (MIC) is the minimal concentration of galactocluster that inhibit the hemagglutination of rabbit erythrocytes in presence of the lectin. The lower the MIC the highest is the binding of the galactocluster to the lectin. SPR and ELLA were used to determine the IC50 value. […] The lower the IC50 value as determined by SPR (^SPRIC50) and ELLA (^ELLAIC50), the higher is the binding of PA-IL to the galactocluster.
96-Well microtiter plates (NuncMaxisorb) were coated with α-PAA-Gal(PAA=polyacrylamide) for PA-IL (Lectinity Holding, Inc.): 100 μL of 5 μg·mL^−1 in carbonate buffer, pH 9.6 for 1 h at 37° C., then blocking at 37° C. for 1 h with 100 μL per well of 3% (w/v) bovine serum albumin (BSA) in phosphate buffer solution (PBS). Lectin solutions (75 μL) were diluted (1:2) starting from 30 μg·mL^−1. After 1 h incubation at 37° C. and three washes with T-PBS (PBS that contained 0.05% Tween 20), horseradish peroxidase (HRP)-streptavidin conjugate (100 μL; dilution 2:8000; Boehringer-Mannheim) was added and left for 1 h at 37° C. Coloration was developed by using 100 μL per well of 0.05% phosphate/citrate buffer that contained o-phenylenediaminedihydrochloride ([…]) and urea hydrogen peroxide (0.4 mg·mL^−1) (OPD kit, Sigma-Aldrich) for 15 min and stopped with sulfuric acid (50 μL, 30%). Absorbance was then read at 490 nm using a microtiter plate reader (BioRad 680). The concentration of biotinylatedlectins was determined by plotting the relative absorbance versus lectin concentration. The concentration that led to the highest response in the linear area was selected as the standard lectin concentration for the subsequent inhibition experiments.
Microtiter plates were modified with PAA-galactose. Slides were incubated with increasing concentration of galactosylated ligands. […] The lowest the IC50 as determined the strongest is the binding of the studied molecule to PA-IL. ELLA: This IC50 will be referred here after ^ELLAIC50. SPR: This IC50 will be referred here after ^SPRIC50.

PA-IL [5] = target: T1, PA-IL; test: Hemagglutination inhibition assay (HIA), rabbit erythrocytes; assay type: cell-based
Procedure: as §1
Hemagglutination inhibition assays (HIA) were performed in U-shaped 96-well microtitre plates. Rabbit erythrocytes were purchased from Biomérieux and used without further washing. Erythrocytes were diluted to a 8% solution in NaCl (100 mM). PA-IL solutions of 3 μM were prepared in TRIS-HCl 20 mM (TRIS=tris(hydroxymethyl)aminomethane), NaCl 100 mM, and CaCl2 100 mM. The hemagglutination unit (HU) was first obtained by addition of the 4% erythrocyte solution (50 μL) to aliquots (50 μL) of sequential (twice) lectin dilutions. The mixture was incubated at 25° C. for 30 min. The HU was measured as the minimum lectin concentration required to observe hemagglutination. For the following lectin-inhibition assays, lectin concentrations of 4 HU were used. […] Subsequent inhibition assays were then carried out by the addition of lectin solution (25 μL, at the required concentration) to sequential dilutions (50 μL) of glycoclusters, monomer molecules, and controls. These solutions were incubated at 37° C. for 30 min, then 8% erythrocyte solution (25 μL) was added, followed by an additional incubation at 37° C. for 1 h. The minimum inhibitory concentration for each molecule was determined for each duplicate.

PA-IL [6] = target: T1, PA-IL; test: Surface Plasmon Resonance (SPR) inhibition; assay type: binding
Procedure: as §1
SPR inhibition experiments were performed using a Biacore 3000 instrument at 25° C. Measurements were carried out on two channels with two immobilized sugars: α-L-fucose (channel 1) and α-D-galactose (channel 2). Immobilization of sugars was performed at 25° C. using running buffer (HBS) at […]. Immobilization on each channel (CM5 Chip) was performed independently as follows. First, the channel was activated by injecting a fresh mixture of EDC/NHS (35 μL, 420 s). Then a solution of streptavidin ([…] in 0.1 mM AcONa pH 5 buffer) was injected (50 μL, 600 s). The remaining reactive species were quenched by injecting ethanolamine (1M, 35 μL, 420 s) into the solution. Finally, a solution of the desired biotinylated-polyacrylamide-sugar (lectinity, […]) was coated onto the surface (50 μL, 600 s) through streptavidin-biotin interaction. […] Inhibition studies consisted of the injection (150 μL, 10 μL·min^−1, dissociation 120 s) of incubated (>1 h, RT) mixtures of PAIL ([…]) and various concentrations of inhibitor (twofold cascade dilutions). […] The CM5 chip was fully regenerated by successive injections of d-galactose (2×30 μL, 100 mm in running buffer). Binding was measured as RU over time after blank subtraction, and data were then evaluated using the BIAevaluation Software version 4.1. For IC50 evaluation, the response (Req-fitted) was considered to be the amount of lectin bound to the carbohydrate-coated surface at equilibrium in the presence of a defined concentration of inhibitor. Inhibition curves were obtained by plotting the percentage of inhibition against the inhibitor concentration (on a logarithmic scale) by using Origin 7.0 software (OriginLab Corp.), and IC50 values were extracted from sigmoidal fit of the inhibition curve.
Microtiter plates were modified with PAA-galactose. […] The lowest the IC50 as determined the strongest is the binding of the studied molecule to PA-IL. […]

[7] = DNA-tagged galactoclusters G1-G24 on glycoarray, read-out: IC50
[8] = lactose concentration required to displace 50% of PA-IL from the glycocluster, higher = better binding, read-out: IC50Lac
[9] = IC50 of Gal-ArNO2 over IC50 of the molecule
[10] = IC50 of Gal-OMe over IC50 of the molecule

T1 sequence (Q05097 2-122): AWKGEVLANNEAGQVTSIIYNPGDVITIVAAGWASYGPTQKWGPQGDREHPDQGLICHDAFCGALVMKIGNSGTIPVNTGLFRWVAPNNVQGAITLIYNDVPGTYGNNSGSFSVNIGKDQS

Row | Compound | Kd (PA-IL [1]) [µM] | IC50 (PA-IL [2]; [7]) [µM] | also measured
1 | Man(EG3MTzAcNPhe-CH2-SGal)4 [G15] | 0.076 | 13300 | 
2 | Man(PSEG3MTzproNCOBisphe-OGal)4 [G20] | 0.043 | 81600 | 
3 | Man(EG3MTzAcNPhe-CH2-Gal)4 [G7] | 0.085 | 9100 | 
4 | Man(HexTzM-Gal)4 [compound 18] |  |  | IC50 (PA-IL [2]; [8]): 107 µM; Potency vs EG3-O-Gal (PA-IL [2]): 21; Potency vs AcNPhe-O-Gal (PA-IL [2]): 6.7; binding to PA-IL on microarray (PA-IL [3]): high binding
5 | Man(PSEG3MTzAcNPhe-CH2-SGal)4 [G16] | 0.075 | 18100 | 
6 | Man(PSEG3MTzAcNPh-Gal)4 [G4] | 0.076 | 17700 | 
7 | Man(EG2MTzAcNPhe-CH2-SGal)4 [G13] | 0.085 | 12000 | 
8 | Man(POEG2MTzEG3-Gal)4 [compound 36] |  |  | IC50 (PA-IL [2]; [8]): 24 µM; Potency vs EG3-O-Gal (PA-IL [2]): 4.8; Potency vs AcNPhe-O-Gal (PA-IL [2]): 1.5
9 | O=[N+]([O-])c1ccc(O[C@@H]2O[C@H](CO)[C@H](O)[C@H](O)[C@H]2O)cc1 [Gal-ArNO2, 1-O-p-nitrophenyl-β-D-galactoside] |  |  | IC50 (PA-IL [4]): 33 µM; ELLA βAr (PA-IL [4]; [9]): 1.0; ELLA βMe (PA-IL [4]; [10]): 5.5; MIC (PA-IL [5]; minimal inhibitory concentration of hemagglutination, PA-IL 3 μM): 2000 µM (≈ 603 µg/mL); βAr (PA-IL [5]; ratio of MIC of Gal-OArNO2 over MIC of the molecule): 1.0; βMe (PA-IL [5]; ratio of MIC of Gal-OMe over MIC of the molecule): 8.0; IC50 (PA-IL [6]): 6.7 µM; SPR βAr (PA-IL [6]; [9]): 1.0; SPR βMe (PA-IL [6]; [10]): 7.3
10 | Man(EG2MTzproNCONapht-OGal)4 [G21] | 0.014 |  | 
11 | Man(EG3MTzproNCONapht-OGal)4 [G23] | 0.048 | 68000 | 
12 | Man(EG3MTzproNCOBisphe-OGal)4 [G19] | 0.046 | 68900 | 
13 | Man(PSEG3MTzAcNPh-SGal)4 [G12] | 0.07 | 19700 | 
14 | Man(POProTzAcNPhe-O-Gal)8 [compound 34] |  |  | IC50 (PA-IL [2]; [8]): 6800 µM; Potency vs EG3-O-Gal (PA-IL [2]): 1361; Potency vs AcNPhe-O-Gal (PA-IL [2]): 425
